Source: ChEMBL document CHEMBL2073808, “P-glycoprotein inhibition by the multidrug resistance-reversing agent MS-209 enhances bioavailability and antitumor efficacy of orally administered paclitaxel” (Cancer Chemother Pharmacol, 2002)

Biological target: ATP-dependent translocase ABCB1 (Homo sapiens, UniProt P08183)
Test: TP_TRANSPORTER: inhibition of Taxol transepithelial transport (basal to apical) in Caco-2 cells
Assay type: functional, cell-based

ATP-dependent translocase ABCB1, sequence (P08183 whole entry): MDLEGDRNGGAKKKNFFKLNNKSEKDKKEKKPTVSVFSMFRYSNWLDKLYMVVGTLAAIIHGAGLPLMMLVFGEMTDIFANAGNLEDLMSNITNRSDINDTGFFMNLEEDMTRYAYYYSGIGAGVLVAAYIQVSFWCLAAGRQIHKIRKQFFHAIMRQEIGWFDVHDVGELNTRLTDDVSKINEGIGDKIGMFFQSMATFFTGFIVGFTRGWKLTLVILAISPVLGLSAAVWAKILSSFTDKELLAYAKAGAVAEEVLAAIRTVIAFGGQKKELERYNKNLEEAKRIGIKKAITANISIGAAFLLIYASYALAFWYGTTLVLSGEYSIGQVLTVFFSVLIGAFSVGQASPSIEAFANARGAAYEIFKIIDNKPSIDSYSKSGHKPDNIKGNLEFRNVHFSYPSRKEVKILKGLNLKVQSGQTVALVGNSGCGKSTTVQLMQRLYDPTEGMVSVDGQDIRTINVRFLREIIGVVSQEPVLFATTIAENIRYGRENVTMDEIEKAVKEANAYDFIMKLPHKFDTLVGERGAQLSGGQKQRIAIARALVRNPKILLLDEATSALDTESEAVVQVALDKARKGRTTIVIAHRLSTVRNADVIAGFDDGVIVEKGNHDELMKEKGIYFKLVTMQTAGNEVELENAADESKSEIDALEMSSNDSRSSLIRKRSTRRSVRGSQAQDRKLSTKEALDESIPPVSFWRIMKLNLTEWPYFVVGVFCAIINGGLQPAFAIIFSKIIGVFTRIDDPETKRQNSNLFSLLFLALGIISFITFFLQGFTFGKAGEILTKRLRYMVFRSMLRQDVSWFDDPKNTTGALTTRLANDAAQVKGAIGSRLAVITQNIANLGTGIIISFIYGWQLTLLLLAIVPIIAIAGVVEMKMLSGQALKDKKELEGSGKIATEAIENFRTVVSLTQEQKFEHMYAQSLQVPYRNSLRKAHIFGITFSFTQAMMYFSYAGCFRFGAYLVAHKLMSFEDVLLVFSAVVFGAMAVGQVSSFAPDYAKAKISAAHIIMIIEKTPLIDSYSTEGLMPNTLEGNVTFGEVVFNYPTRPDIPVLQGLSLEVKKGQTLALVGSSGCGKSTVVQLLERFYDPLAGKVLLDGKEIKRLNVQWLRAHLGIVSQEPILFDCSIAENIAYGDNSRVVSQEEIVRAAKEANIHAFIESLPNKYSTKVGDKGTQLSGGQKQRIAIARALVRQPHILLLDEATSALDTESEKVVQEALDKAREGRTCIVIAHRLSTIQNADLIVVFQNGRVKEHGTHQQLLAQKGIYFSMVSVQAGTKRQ

Ki: 400 nM
Compound: O=C(C(c1ccccc1)c1ccccc1)N1CCN(C[C@@H](O)COc2cccc3ncccc23)CC1
